Here are results for one compound from patent US20070043109A1, “Slimming cosmetic composition” (Sederma Sas, priority 2003, published 2007).

The subject of experiment [1] is LDL receptor. The experiment can be described thus: RT-PCR quantification of LDL receptor mRNA expression in 3T3-L1 neo-adipocytes. The experiment is classed as cell-based. To be noted: 24 hours. From the text: (§1) To evidence regulation of transcription (control of the number of copies of the messenger RNA for the gene coding for the protein studied), it was necessary to isolate the messenger RNA (mRNA) synthesized from the cell culture. The mRNA specific for the protein of interest must be recognized in the total mRNA pool present in the cell.
(§2) The used method is RT-PCR, of amplification and quantization, conducted in real time on the latest-generation systems and which enables in-line quantitative measurement of the target mRNA.
(§3) Neo-adipocytes 3T3-L1 in the adipocytic differentiation phase (after addition of an appropriate triggering cocktail) were incubated with cafestol acetate for 24 hours.
(§4) At the end of the test, the adipocytes were lysed and the extracted mRNA transcribed to cDNA (by reverse transcriptase). The cDNA were then amplified (n copies using Taq polymerase) to obtain a detectable signal.
(§5) The amplicons (cDNA amplification products) were quantified directly, as they emerged in the RT-PCR system, then subjected to electrophoresis in order to visually illustrate the results.

The test system of experiment [2] is VLDL receptor. The experiment can be described thus: RT-PCR quantification of VLDL receptor mRNA expression in 3T3-L1 neo-adipocytes. The experiment is classed as cell-based.
Description: as §1, §2, §3, §4, §5

With `CC(=O)OC[C@@]1(O)C[C@@]23CC[C@@H]4c5ccoc5CC[C@@]4(C)[C@@H]2CC[C@@H]1C3` [Cafestol Acetate, cafestol acetate], the “Change in LDL receptor mRNA expression relative to control” value in experiment [1] (equivalent to that of the positive control) is reported as −33%. Also, in experiment [1] (cafestol acetate 15 ppm, 3T3-L1 neo-adipocytes in differentiation phase, mean of n = 3 tests, control = 100), the “mRNA expression LDL receptor, standardized on internal standard β-actin, percentage relative to the control” value was 66%. Besides, the “mRNA expression VLDL receptor, standardized on internal standard β-actin, percentage relative to the control” value in experiment [2] (cafestol acetate 15 ppm, 24 hours, 3T3-L1 neo-adipocytes in differentiation phase, mean of n = 3 tests, control = 100) was 90%. In addition, the “Reduction of the VLDLr (mRNA expression)” value in experiment [2] (in 24 hours) was 10%.
